This note sets out measurements from ChEMBL document CHEMBL1129417, “Glucose transport-enhancing and hypoglycemic activity of 2-methyl-2-phenoxy-3-phenylpropanoic acids” (1996).

A word on the ED50: it is the midpoint of the dose-response relation. As a reminder, the Inhibition is the percentage by which the read-out fell short of the control.

Assay [1] concerns 3T3-L1. In words: In vitro measurements 2-Deoxyglucose (2DG) uptake in vehicle treated 3T3-L1 adipocytes at 100 uM dose. In kind it is functional.
Assay [2] relates to Mus musculus. In words: In vivo hypoglycemic activity expressed as glucose lowering relative to positive control in 6-8 week old C57BL/6J ob/ob mouse at 10 mg/kg. The format is functional.
For assay [3], the system named is Mus musculus. In words: compound was tested in vivo for hypoglycemic activity expressed as Glucose lowering relative to positive control in 6-8 week old C57BL/6J ob/ob mouse at 50 mg/kg. In kind it is functional.
Assay [4] has as its system Mus musculus. In words: In vivo hypoglycemic activity expressed as glucose lowering relative to positive control in 6-8 week old C57BL/6J ob/ob mouse at 5 mg/kg. In kind it is functional.
The species entered for assay [5] is Rattus norvegicus. In words: Inhibition of gluconeogenesis in rat. The format is functional.
Assay [6] is filed under the species Rattus norvegicus. Kind of assay: Percentage inhibition of Glucagon-stimulated Gluconeogenesis in Isolated Rat Hepatocytes in vitro. The format is functional, Hepatocyte.
The species named for assay [7] is Rattus norvegicus. Kind of assay: Percentage inhibition of basal stimulated Gluconeogenesis in Isolated Rat Hepatocytes in vitro. In kind it is functional, Hepatocyte.
Assay [8] relates to 3T3-L1. In words: compound was evaluated for their acute effects in vitro by measuring 2-Deoxyglucose (2DG) uptake in vehicle treated 3T3-L1 adipocytes at 0.5 uM dose. The format is functional.
The test system of assay [9] is 3T3-L1. Kind of assay: Acute effects in vitro by measuring 2-deoxyglucose (2DG) uptake in vehicle treated 3T3-L1 adipocytes at 10 uM dose. The format is functional.
Assay [10] concerns 3T3-L1. Kind of assay: compound was evaluated for their acute effects in vitro by measuring 2-Deoxyglucose (2DG) uptake in vehicle treated 3T3-L1 adipocytes at 1 uM dose. In kind it is functional.
Assay [11] concerns 3T3-L1. In words: Acute effects in vitro by measuring 2-deoxyglucose (2DG) uptake in vehicle treated 3T3-L1 adipocytes at 30 uM dose. In kind it is functional.
In assay [12] the test system is 3T3-L1. Kind of assay: In vitro by measurements of 2-Deoxyglucose (2DG) uptake in vehicle treated 3T3-L1 adipocytes at 3 uM dose. The format is functional.
Assay [13] deals with 3T3-L1. In words: In vitro measurements of 2-Deoxyglucose (2DG) uptake in vehicle treated 3T3-L1 adipocytes at 60 uM dose. In kind it is functional.
Assay [14] deals with Mus musculus. Kind of assay: In vivo hypoglycemic activity expressed as glucose lowering relative to positive control in 6-8 week old C57BL/6J ob/ob mouse at 1 mg/kg. The format is functional.
Assay [15] relates to Mus musculus. In words: compound was tested in vivo for hypoglycemic activity expressed as Glucose lowering relative to positive control in 6-8 week old C57BL/6J ob/ob mouse at 2.5 mg/kg. The format is functional.

In the assay on 3T3-L1 [1], `CC(C)c1ccc(OC(Cc2ccc(Cl)cc2)C(=O)O)cc1` (stereo not drawn) displayed a Basal uptake of 150%. Besides, the Hypoglycemic activity stood at 58% in the assay on Mus musculus [2], 82% in the assay on Mus musculus [3] and 26% with Mus musculus [4]. For the same compound, the ED50 in the assay filed under Rattus norvegicus [5] (Rattus norvegicus, read-out: ED50) was 10 mg/kg. The figures for the Inhibition in the assay listed under Rattus norvegicus [6] and in the assay filed under Rattus norvegicus [7] were 20% and 32%, respectively.
Take `CC(C)c1ccc(OC(C)(C(=O)O)C(C)c2ccc(Cl)cc2)cc1` (stereo in doubt; 84): the Basal uptake with 3T3-L1 [8] is given as 98%; in the assay with 3T3-L1 [9] it was 131%; in the assay with 3T3-L1 [10] it was 99%; in the assay with 3T3-L1 [11], 128%; in the assay on 3T3-L1 [12] it was 102%; with 3T3-L1 [13], 214%. Moreover, the Hypoglycemic activity in the assay on Mus musculus [2] (10 mg/kg) is recorded as 142%; in the assay on Mus musculus [14], less than 0%; in the assay with Mus musculus [15] it was 62%; in the assay with Mus musculus [4], 77%. The ED50 in the assay listed under Rattus norvegicus [5] stood at 2.5 mg/kg.
